# Measured values reported in publication PMC8375220 (Peptides, 2021).
# Where two headings read alike, the source gives them in different places. Where no end group is shown, it is not given here.
# Tests used:
# [1] = biological target: SARS-CoV-2 spike RBD (Severe acute respiratory syndrome coronavirus 2, UniProt P0DTC2); test: biochemical; type: binding
# [2] = system: BALB/c mice; test: In vivo toxicity after intranasal administration; parameters: species or system mouse; conditions: 2.5 mg/kg single intranasal dose
# [3] = system: SARS-CoV-2 spike pseudovirions
# [4] = system: Human umbilical vein endothelial cells (HUVECs); test: HUVEC viability; type: cell-based
# [5] = system: SARS-CoV-2 spike pseudovirion; conditions: cited from earlier work
substance,measurement,setting,value
"GKGDFRI [GK-7, GKGDFRI]",Kd,[1],25.1 nM
same,"effect on ALT, AST, blood urea and creatinine contents",[2],minor effects
same,HE staining of major organs,[2]; day 7,no pathological changes
same,"effect on RBC, WBC and platelet counts in the blood",[2]; day 7,minor effects
same,"effect on organ index (heart, liver, spleen, lungs, kidneys)",[2]; day 7,minor effects
same,"IC50, inhibition of SARS-CoV-2 spike pseudovirion infection","[3]; spike pseudovirions, 12 h",2.96 µg/mL
same,HUVEC survival,"[4]; 24 h, doses up to 200 μg/mL, CCK-8",did not affect cell survival
same,fold of highest non-cytotoxic dose (200 μg/mL) over pseudovirion IC50,[4]; HUVECs 24 h versus IC50 2.96 μg/mL,approximately 68 fold
ACE2,"IC50, inhibition of SARS-CoV-2 spike pseudovirion infection",[3],0.067 µg/mL
LL37,"IC50, SARS-CoV-2 spike pseudovirion infection",[5],4.74 µg/mL
